Laboratory results published in US7119111B2, “2-oxo-1,3,4-trihydroquinazolinyl derivatives and methods of use” (Amgen, Inc., priority 2002, dated 2006).
Where a name gives a salt, the structure may show the parent alone.

Assay: Cell Proliferation Assay (BrdU incorporation)
Type: cell-based
Conditions: Homo sapiens; 48 h incubation, BrdU labeling; cell line not specified; read-out: inhibited cell proliferation IC50
Experimental: Cell proliferation was measured using a calorimetric immunoassay (B/M Roche #164 7229), based on the measurement of pyrimidine analog BrdU incorporation during DNA synthesis in proliferating cells. Cells, e.g., human PC-3 prostate carconima cells, huFSF normal human foreskin fibroblast cells, HCT 116 human colon carcinoma cells or HT 29 human colon carcinoma cells, were cultured in a 96-well plate for 24 h, until a cell count of 3×10^3 to 6×10^3 cells per well in duplicate wells were achieved, in a well volume of 200 μl. The media was changed and 1 μl of 200× control inhibitors or compounds was added to each well. Cells are incubated for 48 h at 37° C. The cells were labeled with BrdU for 4 h at 37° C. The labeling medium was removed and in one step, the cells were fixed and the DNA was denatured (30 min at RT). Anti-BrdU-POD antibody was added to bind to the BrdU incorporated in newly synthesized cellular DNA (60–90 min at RT). The cells were washed 3×with washing buffer, substrate (100 μl) was added and the cells were incubated for 10 min at RT. The substrate reaction was stopped by adding 25 μl of 1M H2SO4. The amount of BrdU incorporated was quantified by measuring the absorbance at 450 nm using ELISA reader. IC50's were calculated using GraFit (Sigma).

Row | Structure (SMILES) | IC50
1 | Nc1ccc2c(c1)NC(=O)N(c1csc(-c3ccncc3)n1)C2 [Example 28, 7-Amino-3-(2-(4-pyridyl)(1,3-thiazol-4-yl))-1,3,4-trihydroquinazolin-2-one] | < 5 µM

Assay: not given
Conditions: not given

Row | Structure (SMILES) | melting point
2 | O=C1Nc2ccccc2CN1c1nc(-c2ccc(F)c(F)c2)cs1 [Example 39, 3-[4-(3,4-Difluorophenyl)-1,3-thiazol-2-yl]-1,3,4-trihydroquinazolin-2-one] | 289 to 293 °C
3 | O=C1Nc2cccc(CN3CCOCC3)c2CN1c1csc(-c2ccncc2)n1 (as salt: HCl) [Example 14, 5-(Morpholin-4-ylmethyl)-3-(2-(4-pyridyl)(1,3-thiazol-4-yl))-1,3,4-trihydroquinazolin-2-one] | 261 to 263 °C
4 | O=C1Nc2cccc(CN3CCCCC3)c2CN1c1csc(-c2ccncc2)n1 (as salt: HCl) [Example 15, 5-(Piperidylmethyl)-3-(2-(4-pyridyl)(1,3-thiazol-4-yl))-1,3,4-trihydroquinazolin-2-one] | 278 to 280 °C
5 | CN1CCC[C@H]1COc1cccc2c1CN(c1nc(-c3ccncc3)ns1)C(=O)N2 [Example 55, 5-[((2S)-1-Methylpyrrolidin-2-yl)methoxy]-3-(3-(4-pyridyl)-(1,2,4-thiadiazol-5-yl))-1,3,4-trihydroquinazolin-2-one] | > 250 °C
6 | COc1cccc(-c2cccc3c2CN(c2csc(-c4ccncc4)n2)C(=O)N3)c1 [Example 57, 5-(3-Methoxyphenyl)-3-(2-(4-pyridyl)(1,3-thiazol-4-yl))-1,3,4-trihydroquinazolin-2-one] | 250 to 252 °C
7 | O=C1Nc2ccccc2CN1c1nc(-c2ccccn2)cs1 [Example 17, 3-(4-(2-Pyridyl)-1,3-thiazol-2-yl)-1,3,4-trihydroquinazolin-2-one] | > 275 °C
8 | O=C1Nc2cc(-c3ccccc3)ccc2CN1c1csc(-c2ccncc2)n1 [Example 12, 7-Phenyl-3-(2-(4-pyridyl)(1,3-thiazol-4-yl))-1,3,4-trihydroquinazolin-2-one] | 248 to 250 °C
9 | O=C1Nc2ccccc2CN1c1nc(-c2ccc(O)cc2)cs1 [Example 49, 3-[4-(4-Hydroxyphenyl)-1,3-thiazol-2-yl]-1,3,4-trihydroquinazolin-2-one] | 288 to 291 °C
10 | O=C1Nc2cccc(OCCN3CCOCC3)c2CN1c1nc(-c2ccncc2)ns1 (as salt: salt) [Example 51, 5-(2-Morpholin-4-ylethoxy)-3-(3-(4-pyridyl)(1,2,4-thiadiazol-5-yl))-1,3,4-trihydroquinazolin-2-one] | 259 to 260 °C
11 | COc1ccc(-c2csc(N3Cc4ccccc4NC3=O)n2)c(OC)c1 [Example 41, 3-[4-(2,4-Dimethoxyphenyl)-1,3-thiazol-2-yl]-1,3,4-trihydroquinazolin-2-one] | 283 to 288 °C
12 | O=C1Nc2cccc(F)c2CN1c1csc(-c2ccncc2)n1 [Example 13, 5-Fluoro-3-(2-(4-pyridyl)(1,3-thiazol-4-yl))-1,3,4-trihydroquinazolin-2-one] | 247 to 249 °C
13 | CCc1cc(-c2nc(N3Cc4ccccc4NC3=O)cs2)ccn1 [Example 35, 3-[2-(2-Ethyl-4-pyridyl)-1,3-thiazol-4-yl]-1,3,4-trihydroquinazolin-2-one] | 239 to 240 °C
14 | O=C1Nc2ccccc2CN1c1ccc(-c2ccncc2)s1 [Example 47, 3-(5-(4-Pyridyl)-2-thienyl)-1,3,4-trihydroquinazolin-2-one] | 301 to 305 °C
15 | O=C1Nc2cccc(N3CCOCC3)c2CN1c1nc(-c2ccncc2)ns1 [Example 53, 5-Morpholin-4-yl-3-(3-(4-pyridyl)(1,2,4-thiadiazol-5-yl))-1,3,4-trihydroquinazolin-2-one] | > 300 °C
16 | O=C1Nc2cccc(Br)c2CN1c1csc(-c2ccncc2)n1 [Example 6, 5-Bromo-3-(2-(4-pyridyl)(1,3-thiazol-4-yl))-1,3,4-trihydroquinazolin-2-one] | 283 to 284 °C
17 | COc1cccc(-c2ccc3c(c2)NC(=O)N(c2csc(-c4ccncc4)n2)C3)c1 [Example 30, 7-(3-Methoxyphenyl)-3-(2-(4-pyridyl)(1,3-thiazol-4-yl))-1,3,4-trihydroquinazolin-2-one] | 256 to 258 °C
18 | O=C1Nc2cccc(CN3CCCCCC3)c2CN1c1csc(-c2ccncc2)n1 [Example 29, 5-(Azaperhydroepinylmethyl)-3-(2-(4-pyridyl)(1,3-thiazol-4-yl))-1,3,4-trihydroquinazolin-2-one] | 202 to 204 °C
19 | O=C1Nc2cc(C(F)(F)F)ccc2CN1c1nc(-c2ccncc2)ns1 [Example 52, 3-(3-(4-Pyridyl)(1,2,4-thiadiazol-5-yl))-7-(trifluoromethyl)-1,3,4-trihydroquinazolin-2-one] | > 300 °C
20 | O=C1Nc2ccccc2CN1c1nc(-c2ccncc2)ns1 [Example 46, 3-(3-(4-Pyridyl)-1,2,4-thiadiazol-5-yl)-1,3,4-trihydroquinazolin-2-one] | > 290 °C
21 | O=C1Nc2cccc(Cl)c2CN1c1csc(-c2ccncc2)n1 [Example 11, 5-Chloro-3-(2-(4-pyridyl)(1,3-thiazol-4-yl))-1,3,4-trihydroquinazolin-2-one] | 292 to 293 °C

Second part, the compound after the results:

Row | melting point | Structure (SMILES)
22 | > 300 °C | O=C1Nc2cccc(F)c2CN1c1nc(-c2ccncc2)cs1 [Example 45, 5-Fluoro-3-(4-(4-pyridyl)(1,3-thiazol-2-yl))-1,3,4-trihydroquinazolin-2-one]
23 | 254 to 257 °C | CN(C)CCN(C)c1ccc2c(c1)CN(c1nc(-c3ccncc3)cs1)C(=O)N2 [Example 37, 6-{[2-(Dimethylamino)ethyl](methyl)amino}-3-(4-(4-pyridyl)(1,3-thiazol-2-yl))-1,3,4-trihydroquinazolin-2-one]
24 | 295 to 299 °C | O=C1Nc2ccccc2CN1c1nc(-c2ccc(Cl)c(Cl)c2)cs1 [Example 44, 3-[4-(3,4-Dichlorophenyl)-1,3-thiazol-2-yl]-1,3,4-trihydroquinazolin-2-one]
25 | > 272 °C | O=C1Nc2ccc(N3CCCCC3)cc2CN1c1nc(-c2ccncc2)cs1 [Example 36, 6-Piperidyl-3-(4-(4-pyridyl)(1,3-thiazol-2-yl))-1,3,4-trihydroquinazolin-2-one]
26 | > 300 °C | O=C1Nc2cccc(Cl)c2CN1c1nc(-c2ccncc2)cs1 [Example 43, 5-Chloro-3-(4-(4-pyridyl)(1,3-thiazol-2-yl))-1,3,4-trihydroquinazolin-2-one]
27 | 254 to 258 °C | Cc1ccc(Oc2ccc3c(c2)CN(c2nc(-c4ccncc4)cs2)C(=O)N3)c(C)c1 [Example 40, 6-(2,4-Dimethylphenoxy)-3-(4-(4-pyridyl)(1,3-thiazol-2-yl))-1,3,4-trihydroquinazolin-2-one]
28 | 301 to 304 °C | CN1CCN(c2ccc3c(c2)CN(c2nc(-c4ccncc4)cs2)C(=O)N3)CC1 [Example 38, 6-(4-Methylpiperazinyl)-3-(4-(4-pyridyl)(1,3-thiazol-2-yl))-1,3,4-trihydroquinazolin-2-one]
29 | 259 to 261 °C | Cc1ccc2c(c1)CN(c1csc(-c3ccncc3)n1)C(=O)N2 [Example 7, 6-Methyl-3-(2-(4-pyridyl)(1,3-thiazol-4-yl))-1,3,4-trihydroquinazolin-2-one]
30 | 290 to 291 °C | O=C1Nc2ccc(F)cc2CN1c1csc(-c2ccncc2)n1 [Example 10, 6-Fluoro-3-(2-(4-pyridyl)(1,3-thiazol-4-yl))-1,3,4-trihydroquinazolin-2-one]
31 | 269 to 272 °C | O=C1Nc2ccccc2CN1c1nc(-c2cccnc2)cs1 [Example 18, 3-(4-(3-Pyridyl)-1,3-thiazol-2-yl)-1,3,4-trihydroquinazolin-2-one]
32 | 312 to 314 °C | O=C1Nc2cc(F)c(N3CCCCC3)cc2CN1c1csc(-c2ccncc2)n1 [Example 56, 7-Fluoro-6-piperidyl-3-(2-(4-pyridyl)(1,3-thiazol-4-yl))-1,3,4-trihydroquinazolin-2-one]
33 | > 275 °C | CN1CCC[C@H]1COc1ccc2c(c1)CN(c1nc(-c3ccncc3)ns1)C(=O)N2 [Example 54, 6-[((2S)-1-Methylpyrrolidin-2-yl)methoxy]-3-(3-(4-pyridyl)-(1,2,4-thiadiazol-5-yl))-1,3,4-trihydroquinazolin-2-one]
34 | 275 to 278 °C | COc1ccc(-c2csc(N3Cc4ccccc4NC3=O)n2)cc1 [Example 48, 3-[4-(4-Methoxyphenyl)-1,3-thiazol-2-yl]-1,3,4-trihydroquinazolin-2-one]
35 | 285 to 286 °C | O=C1Nc2cc(F)ccc2CN1c1csc(-c2ccncc2)n1 [Example 9, 7-Fluoro-3-(2-(4-pyridyl)(1,3-thiazol-4-yl))-1,3,4-trihydroquinazolin-2-one]
36 | 249 to 250 °C | O=C1Nc2cc(CN3CCOCC3)ccc2CN1c1csc(-c2ccncc2)n1 [Example 27, 7-(Morpholin-4-ylmethyl)-3-(2-(4-pyridyl)(1,3-thiazol-4-yl))-1,3,4-trihydroquinazolin-2-one]
37 | > 267 °C | O=C1Nc2ccccc2CN1c1nc(-c2ccncc2)cs1 [Example 16, 3-(4-(4-Pyridyl)-1,3-thiazol-2-yl)-1,3,4-trihydroquinazolin-2-one]
